Assay results from US12055547B2, “TMEM active test and uses thereof in diagnosis, prognosis and treatment of tumors” (Albert Einstein College of Medicine, priority 2015, dated 2024).

Experiments:
macrophages = assay: Macrophage depletion in PyMT tumors in the MAFIA mouse model; type: in vivo; conditions: vs vehicle
Source text: Summary Tumor cell intravasation at sites of transient vascular permeability associated with TMEM was studied using mouse mammary tumor virus—polyoma middle T antigen (MMTV-PyMT) autochthonous and implanted models of human patient-derived mammary carcinoma. Single cell resolution of cell activity at TMEM in live animals was achieved using extended time-lapse imaging on a custom-built two-laser multiphoton microscope. To investigate the role of macrophages in tumor cell intravasation and blood vessel permeability, the MAFIA mouse model was used to deplete macrophages. Observation of extravascular dextran, vascular junction proteins and protein expression in tissue was performed using immunofluorescence microscopy. Further investigation of the mechanism of macrophage-mediated tumor cell intravasation and blood vessel permeability at TMEM utilized anti-mouse-VEGFA inhibitory antibody and the ablation of Vegfa expression in monocytes using a myeloid-specific (Csf1r promoter), tamoxifen-inducible Cre expressing mouse strain was crossed with Vegfa^flox/flox mice with gene ablation induced with tamoxifen.
Immunofluorescence image analysis. […] The remaining extravascular dextran area, and blood vessel area were then measured. […]

[1] = test system: Tie2 macrophage function in TMEM; assay: TMEM density and TMEM activity (IV-dextran/ZO-1 staining) in tumor after rebastinib; type: in vivo
Source text: FIG. 11A-11B. […] (B) Quantification of vascular permeability activity of tumor TMEM using vascular permeability marker IV-dextran/ZO-1 staining intensity (n=7 and 9; * , P=0.0177).
The relative activity of TMEM can be quantified in (e.g., FFPE) tissue sections in several ways, e.g.: • 1. as the ratio of IV-dextran (or other IV contrast agent) that has leaked from the blood vessel into the tissue at the time of Formaldehyde Fixation after IV injection of contrast agent in preparation for FFPE (measure of local vascular permeability) divided by ZO-1 or VE-Cad staining intensity at TMEM (FIG. 11). Higher dextran/ZO-1=more TMEM activity; • 2. as the ratio of ZO-1 or VE-Cad staining intensity at TMEM per area of blood vessel (CD31 staining area) (FIG. 12). Higher VE-Cad or ZO-1/CD31=less TMEM activity; • 3. as the absolute intensity of ZO-1 or VE-Cad staining intensity at TMEM sites (FIG. 10). Higher VE-Cad staining=less TMEM activity.
The activity status of TMEM (TMEM^Active) in patient tissue samples can be used to assess the efficacy of dissemination inhibitor drugs that inhibit TMEM activity. For example, observe the effects of the following dissemination inhibitors on TMEM^Active using the quantitation methods for TMEM activity described in #1-3 above as follows: • a. Rebastinib, the Tie2 inhibitor which blocks VEGF^Hi TMEM macrophage function, (FIG. 11); • b. […]

| Compound | blood vessel permeability (extravascular 155 kDa dextran-TMR) (macrophages; FIG. 5E) | tumor cell intravasation (circulating tumor cells) (macrophages; FIG. 5F) | TMEM density in 10 40× fields ([1]; FIG. 11A) | vascular permeability activity of tumor TMEM (IV-dextran/ZO-1 staining intensity) ([1]; FIG. 11B, n=7 and 9, P=0.0177) |
| --- | --- | --- | --- | --- |
| CC[C@H](C(=O)N1CCCC[C@H]1C(=O)O[C@H](CCc1ccc(OC)c(OC)c1)c1cccc(OCC(=O)NCC(CNC(=O)COc2cccc([C@@H](CCc3ccc(OC)c(OC)c3)OC(=O)[C@@H]3CCCCN3C(=O)[C@@H](CC)c3cc(OC)c(OC)c(OC)c3)c2)CN(C)C)c1)c1cc(OC)c(OC)c(OC)c1 [B/B homodimerizer] | reduces | reduces | – | – |
| CNC(=O)c1cc(Oc2ccc(NC(=O)Nc3cc(C(C)(C)C)nn3-c3ccc4ncccc4c3)c(F)c2)ccn1 [Rebastinib] | – | – | not significant | inhibits TMEM activity |
